Marks after values point to notes of the source that are not given here. Each block holds one compound with its values, some of them ahead of it.
How the values were obtained:
[1] = tested on: intracellular lipid peroxides of irradiated keratinocytes; test: Lipid peroxides in UV-irradiated keratinocytes (C11-Fluor probe, flow cytometry); format: cell-based, human; conditions: 50 μM; UVB 210 mJ/cm^2
Procedure: This study was performed to evaluate the effect of EPSs of the invention on the relative quantification of the amount of lipid peroxides (LP) (degradation of skin lipids) in human cells exposed or not to UVA+UVB irradiation. The evaluation was obtained by using a specific fluorescent probe and fluorescence flow cytometry analysis. This method offers a great sensitivity because the fluorescence of each cell is measured and numerous cells are evaluated (10000 cells per experimental condition).
Keratinocytes were pre-cultivated in complete SFM medium up to 100% of confluence. The culture medium was then replaced with assay medium containing or not the tested EPSS or the reference and the cells were incubated at 37° C. and 5% CO2 for 24 h. After incubation, a specific probe, fluorescent analogue of lipids (C11-Fluor) and the tested EPS or the references were incorporated and the cells were incubated at 37° C. and 5% CO2 for 45 minutes. The probe was then eliminated by rinsing with culture medium. The washing medium was replaced with culture medium containing the tested EPSs or the references. Untreated controls were carried out in parallel. The cells were irradiated at 210 mJ/cm^2 UVB. […] The fluorescence parameters were measured by flow cytometry with a FACSArray™ cytometer driven by the FACSArray™ system software (Becton-Dickinson) on 10 000 individual cells (no cell population selection). […]

human keratinocytes = test: Overall desquamation/differentiation gene expression profile in human keratinocytes; format: cell-based; conditions: 24 h
Procedure: (§1) This assay was performed in order to measure the effects of the EPSs on the induction of mRNA coding for differentiation proteins (filaggrin, loricrin, involucrin) and for stratum corneum tryptic enzyme involved in desquamation (kallikrein 5, 6 and 7). The relative expression of the selected markers was assayed using the “real time quantitative polymerase chain reaction” technology (RT-QPCR).
(§2) Keratinocytes were pre-cultivated in culture medium. At confluence, the culture medium was changed into assay medium (SFM without EGF and pituitary extract) containing or not (control) the test compound and the cells were incubated for 24 h at 37° C. and 5% CO2. At the end of the experiment, the cells were washed in PBS buffer and immediately frozen at −80° C. with 300 μl per well of Tri-reagent.
(§3) Primers couples allowing the amplification of a specific Polymerase Chain Reactions (PCR) product from each selected marker were used: Liver glyceraldehyde 3-phosphate dehydrogenase (G3PDH) was used as a reference marker in this experiment. The total RNA extraction was performed by Tri-Reagent™ according to the protocol. […]
(§4) Initially, the modulation of gene expression was evaluated on six EPSs at the first concentration (Table VIII). As a second step, it was evaluated on four EPSs at three concentrations (Table IX).

loricrin (LOR) mRNA = test: RT-QPCR gene expression in human keratinocytes: loricrin; format: cell-based; conditions: Table VIII (first step), 24 h
Procedure: as §1, §2, §3, §4

kallikrein 5 (KLK5) mRNA = test: RT-QPCR gene expression in human keratinocytes: KLK5; format: cell-based; conditions: Table VIII (first step), 24 h
Procedure: as §1, §2, §3, §4

[2] = tested on: kallikrein 6 (KLK6, neurosin) mRNA; test: RT-QPCR gene expression in human keratinocytes: KLK6; format: cell-based; conditions: Table VIII (first step), 24 h
Procedure: as §1, §2, §3, §4

[3] = tested on: kallikrein 7 (KLK7, stratum corneum chymotrypsic enzyme) mRNA; test: RT-QPCR gene expression in human keratinocytes: KLK7; format: cell-based; conditions: Table VIII (first step), 24 h
Procedure: as §1, §2, §3, §4

involucrin (INV) mRNA = test: RT-QPCR gene expression in human keratinocytes: involucrin; format: cell-based; conditions: Table VIII (first step), 24 h
Procedure: as §1, §2, §3, §4

filaggrin (FLG) mRNA = test: RT-QPCR gene expression in human keratinocytes: filaggrin; format: cell-based; conditions: Table VIII (first step), 24 h
Procedure: as §1, §2, §3, §4

[4] = tested on: SkinEthic reconstructed human epidermis; test: Epidermal lipid synthesis (14C-acetate incorporation, TLC) in reconstructed epidermis; format: cell-based; conditions: 10^−6M in culture medium (systemic), 72 h
Procedure: This study was performed to evaluate the effect of EPSs of the invention on lipid synthesis. Phospholipids (cellular membranes) and neutral lipids (including epidermis specific lipids) were measured separately using thin layer chromatography. SkinEthic™ reconstructed human epidermis was used for model, its composition being close to normal human epidermis.
The epidermal tissues were placed in 24-well plates and cultivated for 12 h in SkinEthic™ medium. The medium was then replaced by fresh medium and the tested EPSS were applied on the surface of epidermis (topical treatment), at the indicated concentrations. Three control epidermises were untreated and three reference epidermises were treated with the retinoic acid, a known stimulant of total skin lipids, in the culture medium (systemic treatment). All treatments were performed in triplicate and cultivated for 72 hours in total. After 24 h treatment, the culture medium was replaced by labelling medium (0.225 μCi/wells of [^14C] acetate) and the epidermises were treated. The labelling was carried out during a 48-hour incubation period. The Radioactive marker used was [2-14C]-Acetic acid sodium salt, Amersham CFA14 (2.04 Gbq/mmol, 55 mCi/mmol). The epidermises were washed in PBS solution and were dissociated. Then, cells were lysed by treatment with perchloric acid at 0.5 M on ice. Lipids were extracted by methanol/chloroform (2:1) and phase separation was performed by addition of PBS and chloroform after neutralisation in accordance with the procedure described by Bligh and Dyer. The radioactivity was quantified by incorporation into organic phase (lipids) with liquid scintillation (LKB 1210 Rackbeta) after chloroform evaporation. The organic phases were dried under nitrogen and thin layer chromatography (TLC; plates Merck K60) was performed by using two solvent systems: chloroform/methanol/water for Phospholipids (50:18:2.6) or hexane/ether/acetic acid for Neutral lipids (15:5.6:0.19). The various metabolites were quantified by performing a direct count of the radioactivity of the various spots on TLC plates with Phosphorlmager Cyclone™ and Multigauge software (Fujifilm).

human skin explants = test: Antipollution activity on human skin explants (MDA assay, morphology); conditions: for MDA concentration: 2 mg per explant topical
Procedure: This study was performed to evaluate the antipollution activity of a cosmetic product though its effect against free radicals on normal skin. A mixture of pollutants and heavy metals was used to mimic the harmful effects of an environmental pollution (like fumes, smoke . . . ). Explants were used as a skin model in this experiment as a good model of human skin.
Pieces of human skin (27 explants) were prepared from an abdominal biopsy removed from a healthy subject during cosmetic reductive surgery. They were placed in BEM medium at 37° C. and 5% CO2. The tested EPSS were applied on the surface of epidermis (topical treatment) at the indicated concentrations (2 mg per explant). They were applied the first day (Day 0) and after one, two, three and four days (Day 1, Day 2, Day 3 and Day 4).
At Day 4, 30 μL of a mixture of heavy metals (Table XII) and hydrocarbon was applied on a paper disk and immediately placed on identified explants.
At Day 0 and Day 5, 3 explants of each batch were removed and fixed in Bouin's liquid for morphological observation. After 48 hours in Bouin medium, explants were dehydrated, embedded in paraffin and stained in Masson's Trichrome. The MDA assay (Malondialdehyde, a stable product from the radical alteration) was performed in culture medium of Day 3, 24 h after irradiation to quantify the efficiency of products against free radicals generated by pollutants.

[5] = tested on: senescent human fibroblasts; test: Hyaluronic acid synthesis by senescent human fibroblasts (ELISA), with or without TGFβ; format: cell-based; conditions: for HA / HA % of control: 72 h
Excerpt: This study has been performed in order to evaluate the effects of the EPSs on the synthesis of hyaluronic acid by senescent human fibroblasts. […] These senescent cells are obtained by subcultures of normal dermal fibroblasts and a senescent phenotype is obtained from the 12th passage.
This effect was attributed to an increase in sensitivity of cells to EGF. Based on this observation for EGF, a similar situation could exist for other factors like TGFβ. TGFβ has the ability to trigger HA synthesis. It has been observed however, that older cells become desensitized to TGFβ. Two types of effects of EPSS have thus been tested: their direct effect on the production of HA and their possibility to restore sensitivity of the cells to TGFβ.
Senescent fibroblasts were pre-cultivated for 24 hours until confluence. Then, the culture medium was removed and replaced by assay medium containing or not (control), the tested EPSS alone, TGFβ alone or the mix of tested EPSS with TGFβ. The cells were then cultivated for 72 hours. At the end of the incubation, the hyaluronic acid concentration was evaluated in the supernatant by a standard ELISA assay according to the manufacturer's procedures (R&D Systems DY3614) and cell viability was evaluated by using a standard MTT incorporation assay.

[6] = skin explants without contaminant
[7] = culture with TGFβ section, TGFβ alone 1 · 10^−5 g/L (reference of this section)
[8] = culture without TGFβ section, TGFβ alone 1 · 10^−5 g/L

Compound: COc1ccc(O)c(C(C)(C)C)c1 [BHA]
- % protection (intracellular lipid peroxides) [1]: 76%

- KLK7 expression (control = 100) ([3]; 1.5 mM): 291
Compound: [Ca+2].[Cl-].[Cl-] [CaCl2]
- desquamation/differentiation gene expression profile (human keratinocytes): pro differentiation profile
- LOR expression (control = 100) (loricrin (LOR) mRNA; 1.5 mM): 98
- KLK5 expression (control = 100) (kallikrein 5 (KLK5) mRNA; 1.5 mM): 207
- KLK6 expression (control = 100) ([2]; 1.5 mM): 110
- INV expression (control = 100) (involucrin (INV) mRNA; 1.5 mM): 282
- FLG expression (control = 100) (filaggrin (FLG) mRNA; 1.5 mM): 125

Compound: CC1=C(/C=C/C(C)=C/C=C/C(C)=C/C(=O)O)C(C)(C)CCC1 [Retinoic acid]
- Ceramides and cerebrosides (Cera/Cere) synthesis [4]: 85* % Control
- Cholesterol (C) synthesis [4]: 77* % Control
- Esterified Fatty Acids (EFA) synthesis [4]: 133 % Control
- Free Fatty Acids (FFA) synthesis [4]: 76 % Control
- Phospholipids (PL) synthesis [4]: 105 % Control
- Sphingomyelin (SM) synthesis [4]: 106 % Control
- Sulfate Cholesterol (CSO4) synthesis [4]: 92 % Control
- Total Lipids (TL) synthesis [4]: 175** % Control
- Total Lipids (TL) synthesis ([4]; listed as retinoic acid): 175 % Control
- LOR expression (control = 100) (loricrin (LOR) mRNA; 10^−7M): 29
- KLK5 expression (control = 100) (kallikrein 5 (KLK5) mRNA; 10^−7M): 146
- KLK6 expression (control = 100) ([2]; 10^−7M): 315
- KLK7 expression (control = 100) ([3]; 10^−7M): 268
- INV expression (control = 100) (involucrin (INV) mRNA; 10^−7M): 79
- FLG expression (control = 100) (filaggrin (FLG) mRNA; 10^−7M): 35

Compound: Cc1c(C)c2c(c(C)c1O)CC[C@@](C)(CCC[C@H](C)CCC[C@H](C)CCCC(C)C)O2 [α tocopherol]
- % pollution (human skin explants; skin explants + contaminant): 24.13%
- % protection (human skin explants; skin explants + contaminant): 75.9%
- antipollution activity (conclusion of MDA assay) (human skin explants; skin explants + contaminant): reduced pollutants activity
- MDA concentration (human skin explants; skin explants + contaminant (heavy metals and hydrocarbon)): 544.93 pmol/mL
- % pollution (human skin explants; [6]): 0.00%
- MDA concentration (human skin explants; [6]): 392.28 pmol/mL

Compound: TGFβ
- increase of hyaluronic acid synthesis ([5]; TGFβ at 10 ng/ml): 4 folds
- HA [5, 7]: 16.05 µg/mL
- HA % of control [5, 7]: 100%
- HA [5, 8]: 11.73 µg/mL
- HA % of control [5, 8]: 473** %

Source: patent publication US20110150795A1, “COSMETIC COMPOSITIONS COMPRISING EXOPOLYSACCHARIDES DERIVED FROM MICROBIAL MATS, AND USE THEREOF” (Innovactiv Inc., priority 2008, published 2011)
